Assay results reported in patent US5688913A, “CS-1 peptidomimetics, compositions and methods of using the same” (Cytel Corporation, priority 1995, dated 1997).
Like-named read-outs stand apart in the source and are kept apart here. Numbered stars: 1 amine (or outer) side, 2 acyl side, 3 side chain; on linkers, the order of the positions; unused ones are H or OH. Square brackets hold non-standard residues; d marks the D form. Peptide text beside a SMILES is read from it. * marks the point of attachment. X20 = O=C(CCCCCO[C@@H]1O[C@H](CO)[C@@H](O)[C@H](O)[C@H]1N[*:1])[*:2]; code Z = Europium label (diethylenetriaminepentaacetatoeuropium); Biotin = O=C1N[C@H]2[C@H](CS[C@H]2CCCCC(=O)*)N1; Cha = N[C@@H](CC1CCCCC1)C(=O)O; NHPhenethyl = c1ccc(CCN*)cc1; Morpholide = C1CN(*)CCO1; Piperidide = C1CCN(*)CC1; NHDecyl = CCCCCCCCCCN*; PhAc = O=C(Cc1ccccc1)*; Bz = O=C(c1ccccc1)*; Ahx = NCCCCCC(=O)O; NHBu = CCCCN*

Biological target: VLA-4 (Homo sapiens, UniProt P05556+P13612)
Sequence (P13612 34-1032): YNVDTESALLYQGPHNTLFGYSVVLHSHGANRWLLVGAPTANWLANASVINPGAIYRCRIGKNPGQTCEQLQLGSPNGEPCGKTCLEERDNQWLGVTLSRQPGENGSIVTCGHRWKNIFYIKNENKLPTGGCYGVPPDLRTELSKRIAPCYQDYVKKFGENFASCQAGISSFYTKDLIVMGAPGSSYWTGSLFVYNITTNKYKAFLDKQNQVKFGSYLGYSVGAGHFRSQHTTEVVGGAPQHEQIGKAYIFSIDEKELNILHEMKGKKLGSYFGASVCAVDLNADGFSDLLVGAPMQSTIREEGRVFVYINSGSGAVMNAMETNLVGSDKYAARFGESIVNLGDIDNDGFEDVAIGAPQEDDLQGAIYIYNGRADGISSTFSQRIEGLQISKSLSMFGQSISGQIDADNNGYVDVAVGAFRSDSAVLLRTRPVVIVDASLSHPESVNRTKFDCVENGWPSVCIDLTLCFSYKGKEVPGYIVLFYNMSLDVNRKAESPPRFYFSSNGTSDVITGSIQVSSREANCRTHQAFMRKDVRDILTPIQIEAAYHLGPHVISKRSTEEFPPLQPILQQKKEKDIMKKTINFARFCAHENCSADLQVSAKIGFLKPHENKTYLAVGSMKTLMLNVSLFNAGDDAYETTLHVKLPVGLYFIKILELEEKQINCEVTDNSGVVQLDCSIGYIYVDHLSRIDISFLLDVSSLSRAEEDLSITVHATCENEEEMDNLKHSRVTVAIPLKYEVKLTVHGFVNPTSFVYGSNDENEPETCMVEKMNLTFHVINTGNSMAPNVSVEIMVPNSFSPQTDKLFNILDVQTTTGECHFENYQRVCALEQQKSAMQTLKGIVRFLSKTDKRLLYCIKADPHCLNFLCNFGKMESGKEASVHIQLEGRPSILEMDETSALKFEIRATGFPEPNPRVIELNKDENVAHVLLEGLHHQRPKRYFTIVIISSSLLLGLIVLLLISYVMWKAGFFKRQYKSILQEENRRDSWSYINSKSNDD
Sequence (P05556 21-798): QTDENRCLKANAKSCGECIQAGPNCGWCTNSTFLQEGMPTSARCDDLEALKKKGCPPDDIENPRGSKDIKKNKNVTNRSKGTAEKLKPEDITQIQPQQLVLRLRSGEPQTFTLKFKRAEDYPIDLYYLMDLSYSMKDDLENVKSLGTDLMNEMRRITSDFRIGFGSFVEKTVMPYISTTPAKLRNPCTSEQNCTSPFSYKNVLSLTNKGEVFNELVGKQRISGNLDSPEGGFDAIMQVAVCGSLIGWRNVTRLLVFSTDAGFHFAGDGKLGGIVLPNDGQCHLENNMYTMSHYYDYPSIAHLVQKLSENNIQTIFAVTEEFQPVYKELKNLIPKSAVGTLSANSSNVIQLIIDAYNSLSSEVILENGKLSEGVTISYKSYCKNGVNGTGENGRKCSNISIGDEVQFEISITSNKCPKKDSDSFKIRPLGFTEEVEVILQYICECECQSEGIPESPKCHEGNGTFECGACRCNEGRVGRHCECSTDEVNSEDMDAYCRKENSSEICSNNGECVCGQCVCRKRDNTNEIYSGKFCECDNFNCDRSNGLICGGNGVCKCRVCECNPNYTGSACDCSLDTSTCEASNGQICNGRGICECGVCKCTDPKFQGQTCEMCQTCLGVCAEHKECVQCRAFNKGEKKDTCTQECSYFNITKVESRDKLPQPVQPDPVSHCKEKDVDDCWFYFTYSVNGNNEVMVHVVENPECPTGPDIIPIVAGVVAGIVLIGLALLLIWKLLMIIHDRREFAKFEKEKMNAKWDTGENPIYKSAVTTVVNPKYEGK
Test: cell-based
Assay type: cell-based
Set-up: host or cells: Jurkat (human T lymphoblastic line)
Protocol: Binding inhibition is measured here as a concentration of peptide that inhibits one-half the binding between a standard number of Jurkat cells and a standard amount of CS-1 peptide bound to the surface of a microtiter plate well. Those concentrations are conveniently expressed as IC50 values, smaller numbers indicating a lower concentration required to inhibit 50 percent binding and therefore greater potency. Further specifics of this assay are provided hereinafter.
Jurkat cells (ATCC TIB 152), a human T lymphoblastic line, labeled with ^51 chromium were used to assay in vitro binding inhibition provided by various peptides discussed herein.
The plates were prepared as follows: The 25-mer CS-1 peptide (SEQ ID NO:1) dissolved at 0.5-1 μg/ml in a buffer of 0.1M NaHCO3 at pH 9.5 that also contained 10 μg/ml of bovine serum albumin (BSA) or a conjugate of the CS-1 peptide linked to ovalbumin (CS-1-OVA) dissolved at 1-2.5 μg/ml in the same buffer was used as the substrate. Each well of the microtiter plates was coated with 50 μl of substrate or buffer alone for controls. The wells were permitted to dry out completely and were then rinsed twice with PBS at pH 7.4. Non-specific binding sites of each well were then blocked using 200 μl per well of RPMI/1 percent BSA for two hours at room temperature. Both solid phase-affixed substrates provided similar results.
Jurkat cells (3-5×10^6 cells) were placed into a 15 ml Falcon™ round-bottom tube with a cap. The tube was centrifuged, and the extra medium was then removed.
Two hundred microliters of a ^51 Cr labeling solution were added to the centrifuged cells and maintained in contact with the cells for 90-120 minutes in a warm room. This procedure typically provides about 50,000-100,000 cpm/well with about 80-100 percent cell viability. Longer contact times provide a greater amount of labeling but lower cell viability.
The labeled cells are washed with (i) complete medium, (ii) 1 mM EDTA/PBS and then (iii) RPM1/1 percent BSA free of serum components. The cells are centrifuged after each washing. The cells are finally resuspended in serum-free RPMI/1 percent BSA at a concentration of 1×10^6 viable cells/ml, which provides a concentration that is diluted by one-half in the assay.
Inhibitor peptides are prepared as stock solutions at 20 mg/ml in DMSO in 1.5 ml cryogenic screwcap vials, and were stored at -70° C. Using Flow™ round-bottom or V-bottom microtiter plates, the inhibitor peptides were prepared at twice the assay concentration in RPMI/1 percent BSA at 60 μl well.
Four initial dilutions were typically used.
The ^51 Cr-labeled cells (1×10^6 cells at 60 μl/well) were then admixed with the diluted peptide solutions. The admixtures were maintained at room temperature (about 22° C.) for 30 minutes.
One hundred microliters of each inhibitor peptide/cell admixture were transferred to the substrate-coated wells. This was done in triplicate for each dilution. The resulting plates were incubated for 30 minutes at 37° C. and then washed gently three times with RPMI/1 percent BSA at 200 μl/well. Binding was observed microscopically, particularly after the second wash.
The bound cells were then lysed by the addition of a 0.5 percent solution of sodium dodecylsulfate in water at 100 μ/l well. The resulting solutions were then processed for counting and calculation of IC50 values following usual procedures. Appropriate positive and negative controls were used with each plate so that the results of separate assays could be normalized and compared.
The data of Table 1 are so normalized.

[1] = normalized IC50 relative to standard peptide of SEQ ID NO:3 (=1), about one-tenth or less of the standard is assigned zero

Compound | RELATIVE POTENCY (relative peptide inhibition of VLA-4 binding CS-1) | RELATIVE POTENCY (relative peptide inhibition of VLA-4 binding CS-1) [1] | binding inhibition better than the standard 10-mer peptide of SEQ ID NO:3
CC(=O)N[C@H]1[C@H](OCCCCCC(=O)N[C@@H](Cc2ccccc2)C(=O)N[C@@H](CC(C)C)C(=O)N[C@@H](CC(=O)O)C(=O)N[C@@H](CC(C)C)C(=O)N2CCCCC2)O[C@H](CO)[C@@H](O)[C@@H]1O (Ac-[X20]FLDL-Piperidide) | 41 | – | –
CC(C)[C@H](NC(=O)[C@H](CC(=O)O)NC(=O)[C@H](CC1CCCCC1)NC(=O)c1ccccc1)C(=O)N1CCC[C@@H]1C(N)=O (Bz-[Cha]DV[dP]-NH2) | – | 11 | –
CC(C)C[C@H](NC(=O)Cc1ccccc1)C(=O)N[C@@H](CC(=O)O)C(=O)N[C@@H](Cc1ccccc1)C(=O)N1CCCC1CO (stereo partly shown) | – | 184 | –
CC(C)C[C@H](NC(=O)Cc1ccccc1)C(=O)N[C@@H](CC(=O)O)C(=O)N[C@@H](Cc1ccccc1)C(=O)N1CC(O)C(O)C1 (stereo partly shown) | – | 194 | –
CC(C)C[C@H](NC(=O)Cc1ccccc1)C(=O)N[C@@H](CC(=O)O)C(=O)NC1CCCCNC1=O (stereo partly shown) | – | 27 | –
CCC(C)C(N)C(=O)N[C@@H](CC(C)C)C(=O)N[C@@H](CC(=O)O)C(=O)N[C@H](C(=O)N1CCC[C@@H]1C(N)=O)C(C)C (single isomer, unassigned) [I L D V p free amine amide] | 1 | – | –
CC(C)C[C@H](NC(=O)Cc1ccccc1)C(=O)N[C@@H](CC(=O)O)C(=O)N[C@@H](Cc1ccc(O)cc1)C(=O)N1CCOCC1 [X L D Y Z phenylacetyl morpholinamide, N-phenylacetyl-Leu-Asp-Tyr-morpholinamide] (PhAc-Leu-Asp-Tyr-Morpholide) | – | 313 | –
CCCCCCCCCCNC(=O)[C@@H]1CCCN1C(=O)[C@H](Cc1ccccc1)NC(=O)[C@H](CC(=O)O)NC(=O)[C@H](CC(C)C)NC(=O)Cc1ccccc1 [X L D F P Z phenylacetyl decylamide] (PhAc-LDFP-NHDecyl) | – | 2 | –
CCCCNC(=O)[C@H](Cc1ccccc1)NC(=O)[C@H](CC(=O)O)NC(=O)[C@H](CC(C)C)NC(=O)Cc1ccccc1 [X L D F Z phenylacetyl n-butylamide] (PhAc-Leu-Asp-Phe-NHBu) | – | 3 | –
CC(C)C[C@@H](C(=O)N[C@@H](CC(=O)O)C(=O)N[C@@H](Cc1ccccc1)C(=O)N1CCCCC1)N1C(=O)NC(c2ccccc2)C1=O (stereo partly shown) | 34 | – | –
CC(C)C[C@H](NC(=O)Cc1ccccc1)C(=O)N[C@@H](CC(=O)O)C(=O)NCCc1ccccc1 [X L D Z phenylacetyl phenethylamide] (PhAc-Leu-Asp-NHPhenethyl) | – | 19 | –
CC(C)C[C@H](NC(=O)Cc1ccccc1)C(=O)N[C@@H](CC(=O)O)C(=O)NC1Cc2ccccc2N(CCN2CCOCC2)C1=O (stereo partly shown) | – | 20 | –
Z X F L D F p: X = ε-amidocaproyl, Z = Europium label (diethylenetriaminepentaacetatoeuropium), C-terminal amide ({code Z-ε‑amidocaproyl}-FLDF[dP]-NH2; also: europium chelate) | – | 118 | about 120 times
CC(C)C[C@H](NC(=O)C(C)(C)C)C(=O)N[C@@H](CC(=O)O)C(=O)N[C@H](C(=O)N1CCCC1C(N)=O)C(C)C (single isomer, unassigned) [X L D V P pivaloyl amide] | 20 | – | –
CC(C)C[C@H](NC(=O)[C@H](Cc1ccccc1)NC(=O)CCCCCNC(=O)CCCC[C@@H]1SC[C@@H]2NC(=O)N[C@@H]21)C(=O)N[C@@H](CC(=O)O)C(=O)N[C@@H](Cc1ccccc1)C(=O)N1CCC[C@@H]1C(N)=O [B Z F L D F p, N-(biotinoyl-ε-aminocaproyl)-Phe-Leu-Asp-Phe-D-Pro-NH2] ({Biotin-Ahx}-FLDF[dP]-NH2) | 150 | – | –
